US9499553B2 (CHUGAI SEIYAKU KABUSHIKI KAISHA, priority 2013, dated 2016)
Like-named read-outs stand apart in the source and are kept apart here.

Legend:
Format in all cases: cell-based
human NaPi-IIb = molecular target: T1, human NaPi-IIb (Homo sapiens, UniProt O95436); assay: Inhibitory effect on 33PO4 uptake into human NaPi-IIb-expressing CHO cells
T1 construct: expressed in transfected cells
T1 sequence (O95436 1-690): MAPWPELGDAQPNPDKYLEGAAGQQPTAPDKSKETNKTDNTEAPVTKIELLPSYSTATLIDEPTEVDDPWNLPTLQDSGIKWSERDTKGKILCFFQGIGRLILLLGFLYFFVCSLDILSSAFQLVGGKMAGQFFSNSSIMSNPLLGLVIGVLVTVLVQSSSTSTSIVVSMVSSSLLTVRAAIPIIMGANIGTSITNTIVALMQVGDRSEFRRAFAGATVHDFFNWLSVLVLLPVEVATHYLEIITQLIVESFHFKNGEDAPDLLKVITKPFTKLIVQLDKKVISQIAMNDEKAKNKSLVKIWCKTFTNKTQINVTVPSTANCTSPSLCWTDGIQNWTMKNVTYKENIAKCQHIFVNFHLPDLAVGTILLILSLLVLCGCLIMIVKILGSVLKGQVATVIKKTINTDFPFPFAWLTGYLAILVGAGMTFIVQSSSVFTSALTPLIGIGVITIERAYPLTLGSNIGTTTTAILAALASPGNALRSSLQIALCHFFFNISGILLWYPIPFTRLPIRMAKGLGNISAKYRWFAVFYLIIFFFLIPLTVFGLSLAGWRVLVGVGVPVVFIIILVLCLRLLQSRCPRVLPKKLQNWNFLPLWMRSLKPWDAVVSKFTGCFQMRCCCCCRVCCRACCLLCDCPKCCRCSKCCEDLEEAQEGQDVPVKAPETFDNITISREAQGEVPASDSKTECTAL
How it was run: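 Stable human NaPi-IIb CHO line (G418-selected), plated and cultured overnight; ³³PO4 added in buffer A and uptake run at room temperature. Cells washed with ice-cold buffer A, then uptake counted by liquid scintillation.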

human PiT-1 = molecular target: T2, human PiT-1 (Homo sapiens, UniProt Q8WUM9); assay: Inhibitory effect on 33PO4 uptake into human PiT-1-expressing CHO cells; conditions: compound 0.24, 1.2, 6 or 30 μM, pH 6.5, read-out: IC50 against 33PO4 uptake into human PiT-1-expressing cells
T2 construct: expressed in transfected cells; host or cells: CHO cells
T2 sequence (Q8WUM9 1-679): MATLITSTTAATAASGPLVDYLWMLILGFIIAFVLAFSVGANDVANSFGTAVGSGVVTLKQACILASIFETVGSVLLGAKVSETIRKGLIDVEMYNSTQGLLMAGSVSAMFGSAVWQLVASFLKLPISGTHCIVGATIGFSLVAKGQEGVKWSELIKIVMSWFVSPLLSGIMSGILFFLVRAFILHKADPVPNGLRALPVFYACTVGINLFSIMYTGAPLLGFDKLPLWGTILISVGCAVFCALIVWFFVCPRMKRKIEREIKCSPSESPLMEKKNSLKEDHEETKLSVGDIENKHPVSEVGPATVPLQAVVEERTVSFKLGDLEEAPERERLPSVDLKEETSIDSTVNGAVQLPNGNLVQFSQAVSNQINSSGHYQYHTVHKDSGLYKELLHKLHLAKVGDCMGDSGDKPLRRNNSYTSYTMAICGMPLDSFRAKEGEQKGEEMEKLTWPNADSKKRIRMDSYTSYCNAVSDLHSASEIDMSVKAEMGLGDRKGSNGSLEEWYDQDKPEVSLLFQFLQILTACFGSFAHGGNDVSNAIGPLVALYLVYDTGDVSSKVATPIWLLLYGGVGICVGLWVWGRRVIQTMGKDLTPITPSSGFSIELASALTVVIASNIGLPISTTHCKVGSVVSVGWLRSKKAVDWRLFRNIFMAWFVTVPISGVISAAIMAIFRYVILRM
Procedure: Test Example 3: Inhibitory Effect on ^33PO4 Uptake into Human PiT-1-Expressing Cell
(§1) CHO cells were transfected with human PiT-1 expression plasmids or empty vectors to prepare human PiT-1-expressing cells and empty vector-expressing cells. The human PiT-1-expressing cells or the empty vector-expressing cells were inoculated to a 96-well plate and incubated overnight in a CO2 incubator. […] After a given time, a 1/20 volume of buffer A containing ^33PO4 was added thereto and reacted at room temperature. After washing with ice-cold buffer A, a liquid scintillator was added to each reaction mixture, and the amount of ^33PO4 uptake was measured using TopCount. The rate of inhibition was determined according to the following expression: Rate (%) of inhibition=(1−(Amount of ^33PO4 uptake in the compound-supplemented well containing the human PiT-1-expressing cells−Amount of ^33PO4 uptake in the compound-supplemented well containing the empty vector-expressing cells)/(Amount of ^33PO4 uptake in the DMSO-supplemented well containing the human PiT-1-expressing cells −Amount of ^33PO4 uptake in the DMSO-supplemented well containing the empty vector-expressing cells))×100

human PiT-2 = molecular target: T3, human PiT-2 (Homo sapiens, UniProt Q08357); assay: Inhibitory effect on 33PO4 uptake into human PiT-2-expressing CHO cells; conditions: pH 6.5, read-out: IC50 against 33PO4 uptake into human PiT-2-expressing cells
T3 construct: expressed in transfected cells; host or cells: CHO cells
T3 sequence (Q08357 1-652): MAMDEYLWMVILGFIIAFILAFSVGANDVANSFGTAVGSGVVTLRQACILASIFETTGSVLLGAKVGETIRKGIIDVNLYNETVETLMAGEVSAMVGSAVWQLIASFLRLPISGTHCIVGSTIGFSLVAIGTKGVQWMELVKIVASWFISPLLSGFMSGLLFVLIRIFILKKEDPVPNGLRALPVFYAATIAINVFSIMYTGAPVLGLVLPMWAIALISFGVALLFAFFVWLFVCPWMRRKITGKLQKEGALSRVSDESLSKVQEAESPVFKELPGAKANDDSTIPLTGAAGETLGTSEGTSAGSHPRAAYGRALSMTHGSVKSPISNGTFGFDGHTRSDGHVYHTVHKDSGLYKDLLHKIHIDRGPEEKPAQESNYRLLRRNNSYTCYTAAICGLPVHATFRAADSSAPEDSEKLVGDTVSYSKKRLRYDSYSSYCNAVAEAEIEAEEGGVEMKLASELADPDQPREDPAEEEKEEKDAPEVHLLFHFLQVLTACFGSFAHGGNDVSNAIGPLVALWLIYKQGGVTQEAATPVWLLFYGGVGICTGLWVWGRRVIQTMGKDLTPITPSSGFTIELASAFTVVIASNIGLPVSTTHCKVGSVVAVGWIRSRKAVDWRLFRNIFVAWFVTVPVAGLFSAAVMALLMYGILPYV
Procedure: Test Example 4: Inhibitory Effect on ^33PO4 Uptake into Human PiT-2-Expressing Cell
as §1, with “PiT-2” for “PiT-1”, “PiT-2-expressing” for “PiT-1-expressing”

[1] = read-out: IC50 against 33PO4 uptake into human NaPi-IIb-expressing cells

| Structure (SMILES) | IC50 (human NaPi-IIb; read-out: IC50) | IC50 (human PiT-1) | IC50 (human PiT-2) | IC50 (human NaPi-IIb; [1]) |
| --- | --- | --- | --- | --- |
| C[C@]12CCCN1N(Cc1ccc(C#CCN3CCOCC3)c(F)c1F)C(=O)C(C(=O)Nc1ccc(C(F)(F)F)cc1-c1ccc(C(F)(F)F)nc1)=C2O [Example 140, (4aR)-1-[[2,3-Difluoro-4-(3-morpholin-4-ylprop-1-ynyl)phenyl]methyl]-4-hydroxy-4a-methyl-2-oxo-N-[4-(trifluoromethyl)-2-[6-(tri-fluoromethyl)pyridin-3-yl]phenyl]-6,7-dihydro-5H-pyrrolo[1,2-b]pyridazine-3-carboxamide] | 16.2 µM | 3.8 µM | 3.8 µM |  |
| CN(C[C@H](O)[C@@H](O)[C@H](O)[C@H](O)CO)C(=O)CCCOc1ccc(CN2C(=O)C(C(=O)Nc3ccc(C(F)(F)F)cc3-c3cc(C(F)(F)F)ncn3)=C(O)C3(CCCC3)N2C)c(F)c1F [Example 418, 7-[[2,3-Difluoro-4-[4-[methyl-[(2S,3R,4R,5R)-2,3,4,5,6-penta-hydroxyhexyl]amino]-4-oxobutoxy]phenyl]methyl]-10-hydroxy-6-methyl-8-oxo-N-[4-(trifluoromethyl)-2-[6-(trifluoromethyl)pyrimidin-4-yl]phenyl]-6,7-diazaspiro[4.5]dec-9-ene-9-carboxamide] |  | 4.1 µM | 4.6 µM | 10.9 µM |
| C[C@]12CCCN1N(Cc1ccc(OCCN3CCOCC3)c(F)c1F)C(=O)C(C(=O)Nc1ccc(C(F)(F)F)cc1-c1cc(C(F)(F)F)ncn1)=C2O [Example 157, (4aR)-1-[[2,3-Difluoro-4-(2-morpholin-4-ylethoxy)phenyl]methyl]-4-hydroxy-4a-methyl-2-oxo-N-[4-(trifluoromethyl)-2-[6-(trifluoromethyl)pyrimidin-4-yl]phenyl]-6,7-dihydro-5H-pyrrolo [1,2-b]pyridazine-3-carboxamide] | 19.1 µM | 3.8 µM | 3.9 µM |  |
| CN1N(Cc2ccc(OCCCCC(=O)O)c(F)c2F)C(=O)C(C(=O)Nc2ccc(C(F)(F)F)cc2-c2cc(C(F)(F)F)ncn2)=C(O)C12CCCC2 [Example 333, 5-[2,3-Difluoro-4-[[10-hydroxy-6-methyl-8-oxo-9-[[4-(trifluoromethyl)-2-[6-(trifluoromethyl)pyrimidin-4-yl]phenyl]carbamoyl]-6,7-diazaspiro[4.5]dec-9-en-7-yl]methyl]phenoxy]pentanoic acid] | 19.5 µM | 3.6 µM | 10.4 µM |  |
| C[C@]12CCCN1N(Cc1ccc(OCCCOC[C@H](O)CO)c(F)c1F)C(=O)C(C(=O)Nc1ccc(C(F)(F)F)cc1-c1ccc(C(F)(F)F)nc1)=C2O [Example 147, (4aR)-1-[[4-[3-[(2R)-2,3-Dihydroxypropoxy)propoxy]-2,3-difluorophenyl]methyl]-4-hydroxy-4a-methyl-2-oxo-N-[4-(trifluoromethyl)-2-[6-(trifluoromethyl)pyridin-3-yl]phenyl]-6,7-dihydro-5H-pyrrolo [1,2-b]pyridazine-3-carboxamide] | 21.5 µM | 4.4 µM | 8.4 µM |  |
| COCCN(C)CCOc1ccc(CN2C(=O)C(C(=O)Nc3ccc(C(F)(F)F)cc3-c3cc(C(F)(F)F)ncn3)=C(O)C3(CCC3)N2C)c(F)c1F [Example 13, 6-[[2,3-Difluoro-4-[2-[2-methoxyethyl(methyl)amino]ethoxy]phenyl]methyl]-9-hydroxy-5-methyl-7-oxo-N-[4-(trifluoromethyl)-2-[6-(trifluoromethyl)pyrimidin-4-yl]phenyl]-5,6-diazaspiro[3.5]non-8-ene-8-carboxamide] | 7.3 µM | 1.9 µM | 2.7 µM |  |
| Cc1c(C#N)ncnc1-c1cc(C(F)(F)F)ccc1NC(=O)C1=C(O)[C@H](C(C)(C)C)N(C)N(Cc2ccc(OCCN3CCOCC3)c(F)c2F)C1=O [Example 270, (3S)-3-tert-Butyl-N-[2-(6-cyano-5-methylpyrimidin-4-yl)-4-(trifluoromethyl)phenyl]-1-[[2,3-difluoro-4-(2-morpholin-4-yl-ethoxy)phenyl]methyl]-4-hydroxy-2-methyl-6-oxo-3H-pyridazine-5-carboxamide] | 14.6 µM | 3.4 µM | 3.6 µM |  |
| CSc1ccc(-c2cc(Cl)ccc2NC(=O)C2=C(O)[C@H](C(C)(C)C)N(C)N(Cc3ccc(OCCN4CCOCC4)c(F)c3F)C2=O)cn1 [Example 269, (3S)-3-tert-Butyl-N-[4-chloro-2-(6-methylsulfanyl-pyridin-3-yl)phenyl]-1-[[2,3-difluoro-4-(2-morpholin-4-ylethoxy)phenyl]methyl]-4-hydroxy-2-methyl-6-oxo-3H-pyridazine-5-carboxamide] | 4.5 µM | 7.9 µM | 10.6 µM |  |
| CN(C)CC(C)(C)COc1ccc(CN2C(=O)C(C(=O)Nc3ccc(C(F)(F)F)cc3-c3cc(C(F)(F)F)ncn3)=C(O)C3(CCCC3)N2C)c(F)c1F [Example 414, 7-(4-(3-(Dimethylamino)-2,2-dimethylpropoxy)-2,3-difluorobenzyl)-10-hydroxy-6-methyl-8-oxo-N-(4-(tri-fluoromethyl)-2-(6-(trifluoromethyl)pyrimidin-4-yl)phenyl)-6,7-diazaspiro [4.5]dec-9-ene-9-carboxamide] |  | 1.9 µM | 1.2 µM | 4.6 µM |
